The values that follow come from article PMC9098913, “In vitro reconstitution of Escherichia coli divisome activation” (Nature Communications, 2022).

Like-named read-outs stand apart in the source and are kept apart here.

The nature of assay [1]: Nucleotide effect on membrane binding of FtsA WT (normalized intensity). As to conditions: Fig. S3m.
Assay [2] can be described thus: Membrane binding of FtsA by QCM-D. To be noted: for amount of membrane-bound protein saturated at / Kd: QCM-D; for Kd: Hill fit, 5th harmonic, DOPC:DOPG 67:33 mol%, pH 7.4, 150 mM KCl, 5 mM MgCl2, 2 mM ATP, 2 mM GTP, 25 °C, n = 2, upper estimate. The method, then:
To quantify the intrinsic membrane-affinity of the two versions of FtsA, we used Quartz Crystal Microbalance with Dissipation (QCM-D) and measured the hydrated mass of adsorbed protein on a membrane surface.
QCM-D experiments were performed with the QSense Analyzer from Biolin Scientific, equipped with silica-coated sensor (QSX 303). The sensors were cleaned for 10 s in a Zepto plasma cleaner, mounted in the QCM-D chambers and the acquisition of the experiment was first performed in the reaction buffer (50 mM Tris-HCl [pH 7.4], 150 mM KCl and 5 mM MgCl2). The supported lipid membrane was formed by rupturing 0.5 mM small unilamellar vesicles (SUVs) in the presence of MgCl2. The lipids used were 1,2-dioleoyl-sn-glycero-3-phosphocholine (DOPC) and 1,2-dioleoyl-sn-glycero-3-phospho-(1′-rac-glycerol) (DOPG) at a ratio of 67:33 mol%. After bilayer formations, the reaction buffer supplemented with 2 mM ATP, 2 mM GTP and 1 mM DTT was injected and the signal was recorded until a stable equilibrium was reached. Subsequently, increasing concentrations of FtsA were injected in the QCM-D chamber and changes in frequency and dissipation were monitored in real-time. The flow rate used in all experiments was 25 µl min^−1, and the temperature was set to 25 °C. To estimate the membrane-binding affinity, we extracted the frequency changes of the 5th acoustic harmonic for different FtsA concentrations and fitted a Hill equation y=S+(E−S)⋅(x^n/k^n+x^n) , where S is the starting point, E the end point, n is the Hill coefficient and k the dissociation constant. The measured binding affinity is an upper estimate, because QCM-D accounts not only on the dry molecular mass, but also on the hydration shell of the molecular assembly.

The conditions of assay [3]: Fig. S4b, 0.10 % Tris NTA. The method, then:
To study colocalization of His-tagged variants of FtsA, 0.5–1 µM of Cy5 labelled His-tagged FtsAs were added to the chamber, incubated for 20 min and washed 6x with reaction buffer. […] To control the density of membrane-bound FtsA, SUVs without and with Tris-NTA lipids were mixed to obtain the respective Tris-NTA concentrations. To perform FRET/FRAP experiments, equimolar concentrations of Cy3 and Cy5 labelled His-tagged FtsAs (total 0.5–1 µM) or His-SUMO-Cys were added to a chamber and treated as above. […] FRAP experiments were performed as described before.
To calculate the theoretical spacing of His-tagged FtsAs or the His-SUMO control, we consulted a previous QCM-D study using Tris-NTA lipids and a His-tagged version of ZipA[50]. The spacing in nm^2 was calculated by y=2/3⋅1/6.022⋅x⋅0.001 , where x is the protein density in pMol cm^−2 which can be estimated from the Tris-NTA lipid density.
To estimate the theoretical maximum packing of membranes containing Tris-NTA lipids, we can assume the area of a single FtsA molecule to be ~30 nm^2 and the area of a single lipid molecule to be 0.5 nm^2. […] For the FRET control experiments with His-SUMO-Cys, we estimate a four times smaller area for His6-SUMO Cys (~7 nm^2) and thus increase the maximum Tris-NTA density to 5%.

The next assay relates to FtsZ. The method, then:
Additionally, the reaction chamber contained 4 mM ATP and 4 mM GTP, as well as a scavenging system to minimize photobleaching effects: 30 mM d-glucose, 0.050 mg ml^−1 Glucose Oxidase, 0.016 mg ml^−1 Catalase, 1 mM DTT and 1 mM Trolox. Prior addition of all components a corresponding buffer volume was removed from the chamber to obtain a total reaction volume of 100 µl. The dynamic protein pattern was monitored by time-lapse TIRF microscopy at one frame per 2 s and 50 ms exposure time.

For “FtsA WT: wild-type E. coli actin-homologue FtsA, membrane anchor of FtsZ”, the Normalized intensity was determined as 0.07 a.u in assay [1] (AMP PNP, 0.10 µM FtsA, replicate 1); 0.13 a.u in assay [1] (AMP PNP, 0.10 µM FtsA, replicate 2); 0.62 a.u in assay [1] (AMPPNP, 0.20 µM FtsA, summary value); 0.75 a.u in assay [1] (AMPPNP, 0.40 µM FtsA, summary value); 1.00 a.u in assay [1] (AMPPNP, 0.80 µM FtsA, summary value); 0.20 a.u in assay [1] (ATP, 0.10 µM FtsA, replicate 1). Besides, the Normalized intensity turned out to be 0.48 a.u in assay [1] (ATP, 0.10 µM FtsA, replicate 2); 0.37 a.u in assay [1] (ATP, 0.10 µM FtsA, summary value); 0.67 a.u in assay [1] (ATP, 0.20 µM FtsA, summary value); 0.82 a.u in assay [1] (ATP, 0.40 µM FtsA, summary value); 0.95 a.u in assay [1] (ATP, 0.80 µM FtsA, summary value); 0.20 a.u in assay [1] (ATPgS, 0.20 µM FtsA, summary value). Moreover, the Normalized intensity in assay [1] (ATPgS, 0.40 µM FtsA, summary value) came to 0.21 a.u; in assay [1] (ATPgS, 0.80 µM FtsA, summary value) it was 0.65 a.u. The “Mean of QCM-D experiments” value in assay [2] (0.01 µM) turned out to be 1.23; in assay [2] (0.05 µM) it was 3.38; in assay [2] (0.10 µM), 7.01. In addition, the “amount of membrane-bound protein saturated at” value in assay [2] was 0.8 µM. Also, the Kd in assay [2] was 210 ± 10 nM.

For “FtsA-His6: FtsA WT (1-405) with amphipathic helix replaced by C-terminal His-tag”, the “FtsA His6 intensity on Tris NTA SLBs” value in assay [3] (replicate 1) is listed as 1571.82 a.u; in assay [3] (replicate 2) it was 1134.07 a.u; in assay [3] (replicate 3), 932.94 a.u.

B1: FtsA R286W (protein)
chain: MIKATDRKLVVGLEIGTAKVAALVGEVLPDGMVNIIGVGSCPSRGMDKGGVNDLESVVKCVQRAIDQAELMADCQISSVYLALSGKHISCQNEIGMVPISEEEVTQEDVENVVHTAKSVRVRDEHRVLHVIPQEYAIDYQEGIKNPVGLSGVRMQAKVHLITCHNDMAKNIVKAVERCGLKVDQLIFAGLASSYSVLTEDERELGVCVVDIGGGTMDIAVYTGGALRHTKVIPYAGNVVTSDIAYAFGTPPSDAEAIKVRHGCALGSIVGKDESVEVPSVGGRPPWSLQRQTLAEVIEPRYTELLNLVNEEILQLQEKLRQQGVKHHLAAGIVLTGGAAQIEGLAACAQRVFHTQVRIGAPLNITGLTDYAQEPYYSTAVGLLHYGKESHLNGEAEVEKRVTASVGSWIKRLNSWLRKEF
modifications: Cy3 or Cy5 at the N-terminus in the labelled form (labelled CLEPTGG peptide conjugated to the 5xGly tag by sortagging); unlabelled protein also used; left off: TwinStrep-SUMO, N-terminal, cleaved | 5x
In the case of B1, the “FtsZ fluorescence intensity compared to the wild-type protein” value in the assay on FtsZ was “increased”. Moreover, the “Mean of QCM-D experiments” value in assay [2] (0.01 µM) came to 0.81; in assay [2] (0.05 µM), 1.79; in assay [2] (0.10 µM) it was 3.36. In addition, the “amount of membrane-bound protein saturated at” value in assay [2] turned out to be 0.8 µM. The Kd in assay [2] was 320 ± 50 nM.

As a reminder, the Kd is the constant that tells how readily two partners part at equilibrium.
